Measured values: ChEMBL document CHEMBL3124778, “Structure-based design of new dihydrofolate reductase antibacterial agents: 7-(benzimidazol-1-yl)-2,4-diaminoquinazolines” (J Med Chem, 2014)
Converted amounts (≈) assume the structure as drawn.

Experiments:
[1] = test system: Streptococcus pneumoniae; assay: Antibacterial activity against Streptococcus pneumoniae after 18 to 24 hrs by alamar Blue assay; format: functional
[2] = test system: Streptococcus pneumoniae; assay: Antibacterial activity against Streptococcus pneumoniae ATCC BAA-255 after 18 to 24 hrs by alamar Blue assay; format: functional
[3] = test system: Streptococcus pneumoniae; assay: Antibacterial activity against Streptococcus pneumoniae ATCC 700904 after 18 to 24 hrs by alamar Blue assay; format: functional
[4] = test system: Streptococcus pneumoniae; assay: Antibacterial activity against Streptococcus pneumoniae ATCC 700676 after 18 to 24 hrs by alamar Blue assay; format: functional
[5] = test system: Streptococcus pneumoniae; assay: Antibacterial activity against Streptococcus pneumoniae ATCC 700677 after 18 to 24 hrs by alamar Blue assay; format: functional
[6] = test system: Streptococcus pneumoniae; assay: Antibacterial activity against Streptococcus pneumoniae ATCC 700675 after 18 to 24 hrs by alamar Blue assay; format: functional
[7] = test system: Streptococcus pneumoniae; assay: Antibacterial activity against Streptococcus pneumoniae ATCC 51916 after 18 to 24 hrs by alamar Blue assay; format: functional
[8] = test system: Streptococcus pneumoniae; assay: Antibacterial activity against Streptococcus pneumoniae ATCC 700671 after 18 to 24 hrs by alamar Blue assay; format: functional
[9] = test system: Streptococcus pneumoniae; assay: Antibacterial activity against Streptococcus pneumoniae ATCC 700669 after 18 to 24 hrs by alamar Blue assay; format: functional
[10] = test system: Streptococcus pneumoniae; assay: Antibacterial activity against Streptococcus pneumoniae ATCC 700674 after 18 to 24 hrs by alamar Blue assay; format: functional
[11] = test system: Streptococcus pneumoniae; assay: Antibacterial activity against Streptococcus pneumoniae ATCC 49619 after 18 to 24 hrs by alamar Blue assay; format: functional
[12] = test system: Staphylococcus aureus; assay: Antibacterial activity against Staphylococcus aureus ATCC 13709 after 18 to 24 hrs by alamar Blue assay in presence of 20% heat inactivated mouse serum; format: functional
[13] = test system: Staphylococcus aureus; assay: Antibacterial activity against Staphylococcus aureus ATCC 13709 after 18 to 24 hrs by alamar Blue assay; format: functional
[14] = test system: Staphylococcus aureus; assay: Antibacterial activity against TMP-resistant Staphylococcus aureus expressing DHFR F99Y mutant after 18 to 24 hrs by alamar Blue assay; format: functional
[15] = target: T1, Dihydrofolate reductase (Homo sapiens, UniProt P00374); assay: Inhibition of human DHFR using dihydrofolate as substrate preincubated for 10 mins followed by substrate addition by spectrophotometric analysis in presence of NADPH
T1 sequence (P00374 whole entry): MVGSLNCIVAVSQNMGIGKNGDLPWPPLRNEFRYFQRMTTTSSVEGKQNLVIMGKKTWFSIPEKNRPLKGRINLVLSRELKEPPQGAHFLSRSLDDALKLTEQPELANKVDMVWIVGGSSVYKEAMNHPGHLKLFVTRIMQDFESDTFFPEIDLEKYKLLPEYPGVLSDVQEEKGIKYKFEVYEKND

[16] = target: Dihydrofolate reductase (Staphylococcus aureus, UniProt P0A017); assay: Inhibition of Staphylococcus aureus DHFR using dihydrofolate as substrate preincubated for 10 mins followed by substrate addition by spectrophotometric analysis in presence of NADPH
Chain of Dihydrofolate reductase (Staphylococcus aureus, UniProt P0A017) (P0A017 whole entry): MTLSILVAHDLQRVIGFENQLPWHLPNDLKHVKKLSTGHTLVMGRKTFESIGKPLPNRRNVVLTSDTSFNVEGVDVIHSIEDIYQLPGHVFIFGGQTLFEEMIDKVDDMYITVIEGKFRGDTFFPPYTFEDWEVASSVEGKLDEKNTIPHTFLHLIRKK

[17] = Selectivity ratio of Ki for human DHFR to Ki for Staphylococcus aureus DHFR

SMILES	MIC [12] [µg/mL]	MIC [13] [µg/mL]	MIC [14] [µg/mL]	Ki [15] [nM]	Ki [16] [nM]	also measured
COc1cc(Cc2cnc(N)nc2N)c2c(c1OC)OC(C1CC1)C=C2 (centres undefined)	0.125	0.125 (≈ 0.353 µM)	–	–	–	MIC50 [1]: ≤ 0.5 µg/mL; MIC90 [1]: 8 µg/mL (≈ 22.6 µM); MIC [2]: ≤ 0.5 µg/mL; MIC [3]: 4 µg/mL (≈ 11.3 µM); MIC [4]: ≤ 0.5 µg/mL; MIC [5]: ≤ 0.5 µg/mL; MIC [6]: ≤ 0.5 µg/mL; MIC [7]: 1 µg/mL (≈ 2.82 µM); MIC [8]: 16 µg/mL (≈ 45.1 µM); MIC [9]: 8 µg/mL (≈ 22.6 µM); MIC [10]: 8 µg/mL (≈ 22.6 µM); MIC [11]: 0.125 µg/mL (≈ 0.353 µM)
Cc1cc2nc(-c3ccncc3)n(-c3ccc4c(N)nc(N)nc4c3)c2cc1C	0.5	0.125 (≈ 0.328 µM)	8 (≈ 21 µM)	437	0.026	–
Cc1cc2nc(-c3ccccn3)n(-c3ccc4c(N)nc(N)nc4c3)c2cc1C	–	0.125 (≈ 0.328 µM)	4 (≈ 10.5 µM)	–	–	Ratio Ki [17]: 26000
Cc1cc2nc(-c3nccs3)n(-c3cc4nc(N)nc(N)c4cc3C)c2cc1C	0.06	0.03 (≈ 0.0747 µM)	0.125 (≈ 0.311 µM)	–	–	Ratio Ki [17]: 97
Cc1cc2nc(-c3cscn3)n(-c3ccc4c(N)nc(N)nc4c3)c2cc1C	2	2 (≈ 5.16 µM)	16 (≈ 41.3 µM)	1100	0.096	Ratio Ki [17]: 11500
COc1cc2nc(-c3ccccn3)n(-c3ccc4c(N)nc(N)nc4c3)c2cc1OC	16	4 (≈ 9.67 µM)	> 64	841	0.36	Ratio Ki [17]: 2300
Cc1cc2nc(-c3cccs3)n(-c3cc4nc(N)nc(N)c4cc3Cl)c2cc1C	1	0.03 (≈ 0.0713 µM)	4 (≈ 9.5 µM)	> 3000	0.01	MIC50 [1]: 1 µg/mL (≈ 2.38 µM); MIC90 [1]: > 64 µg/mL; MIC [2]: ≤ 0.125 µg/mL; MIC [3]: 4 µg/mL (≈ 9.5 µM); MIC [4]: 0.25 µg/mL (≈ 0.594 µM); MIC [5]: 0.25 µg/mL (≈ 0.594 µM); MIC [6]: 1 µg/mL (≈ 2.38 µM); MIC [7]: 1 µg/mL (≈ 2.38 µM); MIC [8]: > 64 µg/mL; MIC [9]: 2 µg/mL (≈ 4.75 µM); MIC [10]: > 64 µg/mL; MIC [11]: 0.5 µg/mL (≈ 1.19 µM)
Cc1cc2nc(-c3cncn3C)n(-c3ccc4c(N)nc(N)nc4c3)c2cc1C	32	4 (≈ 10.4 µM)	64 (≈ 166 µM)	2920	1.1	–
COc1cc2nc(-c3ccco3)n(-c3cc4nc(N)nc(N)c4cc3Cl)c2cc1OC	0.5	0.5 (≈ 1.14 µM)	8 (≈ 18.3 µM)	610	0.024	–
COc1cc2nc(-c3cccs3)n(-c3cc4nc(N)nc(N)c4cc3Cl)c2cc1OC	0.5	0.5 (≈ 1.1 µM)	4 (≈ 8.83 µM)	> 3000	0.048	–
COc1cc(Cc2cnc(N)nc2N)cc(OC)c1OC [TRIMETHOPRIM]	–	–	–	–	–	MIC50 [1]: 8 µg/mL (≈ 27.6 µM); MIC90 [1]: > 64 µg/mL; MIC [2]: 0.5 µg/mL (≈ 1.72 µM); MIC [3]: > 64 µg/mL; MIC [4]: 4 µg/mL (≈ 13.8 µM); MIC [5]: 4 µg/mL (≈ 13.8 µM); MIC [6]: 8 µg/mL (≈ 27.6 µM); MIC [7]: > 64 µg/mL; MIC [8]: > 64 µg/mL; MIC [9]: > 64 µg/mL; MIC [10]: > 64 µg/mL; MIC [11]: 4 µg/mL (≈ 13.8 µM)
Cc1cc2nc(N3CCOCC3)n(-c3ccc4c(N)nc(N)nc4c3)c2cc1C	–	–	> 64	–	–	–
Cc1cc2nc(C3CCOC3)n(-c3ccc4c(N)nc(N)nc4c3)c2cc1C (centres undefined)	64	8 (≈ 21.4 µM)	> 64	> 5000	4.2	–
CN(Cc1cnc2nc(N)nc(N)c2n1)c1ccc(C(=O)N[C@@H](CCC(=O)O)C(=O)O)cc1 [METHOTREXATE]	–	> 64	–	–	–	–
Cc1cc2nc(-c3ccco3)n(-c3ccc4c(N)nc(N)nc4c3)c2cc1C	0.125	0.015 (≈ 0.0405 µM)	1 (≈ 2.7 µM)	943	0.007	–
